Test results reported in patent US20130324555A1, “Method of use of pharmaceutical formulations for the treatment of apicomplexan diseases in animals” (priority 2012, published 2013).

Assays:
[1] = In vivo oral toxicity in mice; conditions: for toxic effects when dosed orally: gavage daily for nine days, 100 mg/kg; for signs of toxicity in mice, in words: mouse, in vivo
Description: Selected compounds were evaluated for in vivo efficacy against T. gondii and P. falciparum. To asses toxic effects when administered orally, selected compounds were administered orally to mice daily for nine days at a dose of 100 mg/kg. At the end of the ten days, the animals were evaluated for toxic effects.
Todetermine whether 14a or 14b exerted toxic effects when dosed orally, each compound was administered by gavage to mice daily for nine days at a dose of 100 mg/kg.
HLA B07 transgenic mice were produced at Pharmexa-Epimmune (San Diego, Calif., USA) and bred at the University of Chicago. All studies were conducted with Institutional Animal Care and Use Committee at the USDA, the University of Chicago, and the University of Strathclyde.

T. gondii Me-49 oocysts = assay: Mouse model of T. gondii oocyst infection, Me-49; format: in vivo, mice
Description: (§1) Compounds 14a and 14b were tested for efficacy against T. gondii in the oocyst stage following per oral challenge in mice. Mice were infected by oral gavage with ME49 or TgGoatUS4 oocysts. Mice were treated with either 100 mg/kg or 25 mg/kg) of test substance.
(§2) Thus, compounds 14a and 14b were tested for efficacy in a mouse model of T. gondii oocyst infection. The oocyst form of the parasite is excreted by cats and is often the form by which people and other animals become infected. This oocyst infection in mice is very virulent, and fatal. Mice were infected by oral gavage with ME49 or TgGoatUS4 oocysts. Mice were treated with either a high dose (100 mg/kg) or low dose (25 mg/kg) of 14a or 14b 1 mL suspension via oral gavage, or were not treated. […] Treatment with 14a and 14b increased survival by 1 day (Table 6, FIGS. 8 and 9).
(§3) HLA B07 transgenic mice were produced at Pharmexa-Epimmune (San Diego, Calif., USA) and bred at the University of Chicago. […]
(§4) Oocysts were obtained by feeding infected tissues of Swiss Webster mice to cats, sporulated in 2% sulfuric acid on a shaker for one week, and stored at 4° C. until used (Dubey 2010). Oocysts were counted in a disposable hemocytometer and diluted 10-fold from 10^−1 to 10^−7 to reach an end point of ≅1 oocyst. […]

[2] = Hydrolytic stability of acylated derivatives (data not shown); format: physicochemical
Description: A cursory study of the effect of capping the phenol of 4 via acylation was undertaken. The acylated derivatives 7 were prepared and tested. […] The intrinsic activity of intact 7a cannot yet be ruled out, and this interesting phenomenon is currently under study.

[3] = tested on: T. gondii TgGoatUS4 oocysts; assay: Mouse model of T. gondii oocyst infection, TgGoatUS4; format: in vivo, mice
Description: as §1, §2, §3, §4

SMILES	toxic effects when dosed orally [1]	signs of toxicity in mice, in words [1]	increase of survival (T. gondii Me-49 oocysts; Me-49 oocysts, 100 or 25 mg/kg)	survival of mice infected with T. gondii oocysts, in words (T. gondii Me-49 oocysts; mouse, in vivo)	stability against hydrolysis [2]	increase of survival ([3]; TgGoatUS4 oocysts, 100 or 25 mg/kg)	survival of mice infected with T. gondii oocysts, in words ([3]; mouse, in vivo)
CN(CC(=O)NN)C(=O)Oc1ccc(Cl)cc1C(=O)Nc1ccc([N+](=O)[O-])cc1Cl.Cl [Compound 14a, 4-chloro-2-((2-chloro-4-nitrophenyl)carbamoyl)phenyl (2-hydrazinyl-2-oxoethyl)(methyl)carbamate hydrochloride]	all mice were alive and appeared healthy	no signs of toxicity	1 days	effective at prolonging slightly the survival	–	–	–
O=C(Oc1ccc(Cl)cc1C(=O)Nc1ccc([N+](=O)[O-])cc1Cl)c1ccccc1 [Compound 7a, 4-chloro-2-((2-chloro-4-nitrophenyl)carbamoyl)phenyl benzoate]	–	–	–	–	hydrolytically labile under certain conditions	–	–
CN(CC(=O)NN)C(=O)Oc1ccc(Cl)cc1C(=O)Nc1ccc(C(F)(F)F)cc1C(F)(F)F.Cl [Compound 14b, 2-((2,4-bis(trifluoromethyl)phenyl)carbamoyl)-4-chlorophenyl (2-hydrazinyl-2-oxoethyl)(methyl)carbamate hydrochloride]	all mice were alive and appeared healthy	no signs of toxicity	–	–	–	1 days	effective at prolonging slightly the survival
